# Test results: ChEMBL document CHEMBL5724914, “Linking interpersonal differences in gut microbiota composition and drug biotransformation activity” (2024)
# Conditions: human gut metagenome, 24 h, 2 µM
# Further: call rule not given here.
row,Bacterial Biotransformation,Compound
1,Compound metabolized,CCN(CC)C(C)CN1c2ccccc2Sc2ccccc21 (stereo not given) [ETHOPROPAZINE]
2,Compound metabolized,CCN(CC)CC#CCOC(=O)C(O)(c1ccccc1)C1CCCCC1.Cl (stereo not given) [OXYBUTYNIN CHLORIDE]
3,Compound NOT metabolized,Nc1c2c(nc3ccccc13)CCCC2 [TACRINE]
4,Compound NOT metabolized,CC(Oc1c(Cl)cccc1Cl)C1=NCCN1 (stereo not given) [LOFEXIDINE]

# Conditions: human gut metagenome, 24 h, 2 µM
# Remark: another data set of the same source
row,Bacterial Biotransformation,Compound
1,Compound metabolized,CCN(CC)C(C)CN1c2ccccc2Sc2ccccc21 (stereo not given) [ETHOPROPAZINE]
2,Compound metabolized,CCN(CC)CC#CCOC(=O)C(O)(c1ccccc1)C1CCCCC1.Cl (stereo not given) [OXYBUTYNIN CHLORIDE]
3,Compound NOT metabolized,Nc1c2c(nc3ccccc13)CCCC2 [TACRINE]
4,Compound metabolized,CC(Oc1c(Cl)cccc1Cl)C1=NCCN1 (stereo not given) [LOFEXIDINE]

# Assay: (§1) The drug is tested on WLS-010 corresponding to human gut metagenome with ENA study accession number: PRJEB37062 and ENA sample accession number: ERS12561743 for biotransformation under anaerobic condition. The drug concentrations were measured over 9 timepoints collected between 0 and 24 hours of incubation by liquid-chromatography-coupled mass spectrometry (LC–MS)
# Conditions: 2 µM
row,Bacterial Biotransformation,Compound
1,Compound metabolized,CCN(CC)C(C)CN1c2ccccc2Sc2ccccc21 (stereo not given) [ETHOPROPAZINE]
2,Compound metabolized,CCN(CC)CC#CCOC(=O)C(O)(c1ccccc1)C1CCCCC1.Cl (stereo not given) [OXYBUTYNIN CHLORIDE]
3,Compound NOT metabolized,Nc1c2c(nc3ccccc13)CCCC2 [TACRINE]
4,Compound NOT metabolized,CC(Oc1c(Cl)cccc1Cl)C1=NCCN1 (stereo not given) [LOFEXIDINE]

# Conditions: human gut metagenome, 24 h, 2 µM
# Remark: another data set of the same source
row,Bacterial Biotransformation,Compound
1,Compound metabolized,CCN(CC)C(C)CN1c2ccccc2Sc2ccccc21 (stereo not given) [ETHOPROPAZINE]
2,Compound metabolized,CCN(CC)CC#CCOC(=O)C(O)(c1ccccc1)C1CCCCC1.Cl (stereo not given) [OXYBUTYNIN CHLORIDE]
3,Compound metabolized,Nc1c2c(nc3ccccc13)CCCC2 [TACRINE]
4,Compound metabolized,CC(Oc1c(Cl)cccc1Cl)C1=NCCN1 (stereo not given) [LOFEXIDINE]

# Assay: as §1, with “WLS-027” for “WLS-010”, “ERS12561744” for “ERS12561743”
# Conditions: 2 µM
row,Bacterial Biotransformation,Compound
1,Compound metabolized,CCN(CC)C(C)CN1c2ccccc2Sc2ccccc21 (stereo not given) [ETHOPROPAZINE]
2,Compound metabolized,CCN(CC)CC#CCOC(=O)C(O)(c1ccccc1)C1CCCCC1.Cl (stereo not given) [OXYBUTYNIN CHLORIDE]
3,Compound NOT metabolized,Nc1c2c(nc3ccccc13)CCCC2 [TACRINE]
4,Compound metabolized,CC(Oc1c(Cl)cccc1Cl)C1=NCCN1 (stereo not given) [LOFEXIDINE]

# Conditions: human gut metagenome, 24 h, 2 µM
# Remark: another data set of the same source
row,Bacterial Biotransformation,Compound
1,Compound metabolized,CCN(CC)C(C)CN1c2ccccc2Sc2ccccc21 (stereo not given) [ETHOPROPAZINE]
2,Compound NOT metabolized,CCN(CC)CC#CCOC(=O)C(O)(c1ccccc1)C1CCCCC1.Cl (stereo not given) [OXYBUTYNIN CHLORIDE]
3,Compound NOT metabolized,Nc1c2c(nc3ccccc13)CCCC2 [TACRINE]
4,Compound NOT metabolized,CC(Oc1c(Cl)cccc1Cl)C1=NCCN1 (stereo not given) [LOFEXIDINE]

# Assay: as §1, with “Z-023” for “WLS-010”, “to” for “to human gut”, “ERS12561822” for “ERS12561743”
# Conditions: 2 µM
row,Bacterial Biotransformation,Compound
1,Compound metabolized,CCN(CC)C(C)CN1c2ccccc2Sc2ccccc21 (stereo not given) [ETHOPROPAZINE]
2,Compound metabolized,CCN(CC)CC#CCOC(=O)C(O)(c1ccccc1)C1CCCCC1.Cl (stereo not given) [OXYBUTYNIN CHLORIDE]
3,Compound NOT metabolized,Nc1c2c(nc3ccccc13)CCCC2 [TACRINE]
4,Compound NOT metabolized,CC(Oc1c(Cl)cccc1Cl)C1=NCCN1 (stereo not given) [LOFEXIDINE]

# Assay: as §1, with “Z-006” for “WLS-010”, “mouse” for “human”, “ERS12561806” for “ERS12561743”
# Conditions: 2 µM
row,Bacterial Biotransformation,Compound
1,Compound NOT metabolized,CCN(CC)C(C)CN1c2ccccc2Sc2ccccc21 (stereo not given) [ETHOPROPAZINE]
2,Compound NOT metabolized,CCN(CC)CC#CCOC(=O)C(O)(c1ccccc1)C1CCCCC1.Cl (stereo not given) [OXYBUTYNIN CHLORIDE]
3,Compound NOT metabolized,Nc1c2c(nc3ccccc13)CCCC2 [TACRINE]
4,Compound NOT metabolized,CC(Oc1c(Cl)cccc1Cl)C1=NCCN1 (stereo not given) [LOFEXIDINE]

# Conditions: human gut metagenome, 24 h, 2 µM
# Remark: another data set of the same source
row,Bacterial Biotransformation,Compound
1,Compound metabolized,CCN(CC)C(C)CN1c2ccccc2Sc2ccccc21 (stereo not given) [ETHOPROPAZINE]
2,Compound metabolized,CCN(CC)CC#CCOC(=O)C(O)(c1ccccc1)C1CCCCC1.Cl (stereo not given) [OXYBUTYNIN CHLORIDE]
3,Compound NOT metabolized,Nc1c2c(nc3ccccc13)CCCC2 [TACRINE]
4,Compound NOT metabolized,CC(Oc1c(Cl)cccc1Cl)C1=NCCN1 (stereo not given) [LOFEXIDINE]

# Assay: as §1, with “Z-022” for “WLS-010”, “mouse” for “human”, “ERS12561821” for “ERS12561743”
# Conditions: 2 µM
row,Bacterial Biotransformation,Compound
1,Compound NOT metabolized,CCN(CC)C(C)CN1c2ccccc2Sc2ccccc21 (stereo not given) [ETHOPROPAZINE]
2,Compound metabolized,CCN(CC)CC#CCOC(=O)C(O)(c1ccccc1)C1CCCCC1.Cl (stereo not given) [OXYBUTYNIN CHLORIDE]
3,Compound NOT metabolized,Nc1c2c(nc3ccccc13)CCCC2 [TACRINE]
4,Compound NOT metabolized,CC(Oc1c(Cl)cccc1Cl)C1=NCCN1 (stereo not given) [LOFEXIDINE]

# Assay: as §1, with “WLS-098” for “WLS-010”, “ERS12561754” for “ERS12561743”
# Conditions: 2 µM
row,Bacterial Biotransformation,Compound
1,Compound metabolized,CCN(CC)C(C)CN1c2ccccc2Sc2ccccc21 (stereo not given) [ETHOPROPAZINE]
2,Compound metabolized,CCN(CC)CC#CCOC(=O)C(O)(c1ccccc1)C1CCCCC1.Cl (stereo not given) [OXYBUTYNIN CHLORIDE]
3,Compound metabolized,Nc1c2c(nc3ccccc13)CCCC2 [TACRINE]
4,Compound metabolized,CC(Oc1c(Cl)cccc1Cl)C1=NCCN1 (stereo not given) [LOFEXIDINE]

# Assay: as §1, with “Z-025” for “WLS-010”, “rabbit” for “human”, “ERS12561824” for “ERS12561743”
# Conditions: 2 µM
row,Bacterial Biotransformation,Compound
1,Compound NOT metabolized,CCN(CC)C(C)CN1c2ccccc2Sc2ccccc21 (stereo not given) [ETHOPROPAZINE]
2,Compound NOT metabolized,CCN(CC)CC#CCOC(=O)C(O)(c1ccccc1)C1CCCCC1.Cl (stereo not given) [OXYBUTYNIN CHLORIDE]
3,Compound NOT metabolized,Nc1c2c(nc3ccccc13)CCCC2 [TACRINE]
4,Compound NOT metabolized,CC(Oc1c(Cl)cccc1Cl)C1=NCCN1 (stereo not given) [LOFEXIDINE]

# Conditions: human gut metagenome, 24 h, 2 µM
# Remark: another data set of the same source
row,Bacterial Biotransformation,Compound
1,Compound NOT metabolized,CCN(CC)C(C)CN1c2ccccc2Sc2ccccc21 (stereo not given) [ETHOPROPAZINE]
2,Compound metabolized,CCN(CC)CC#CCOC(=O)C(O)(c1ccccc1)C1CCCCC1.Cl (stereo not given) [OXYBUTYNIN CHLORIDE]
3,Compound NOT metabolized,Nc1c2c(nc3ccccc13)CCCC2 [TACRINE]
4,Compound NOT metabolized,CC(Oc1c(Cl)cccc1Cl)C1=NCCN1 (stereo not given) [LOFEXIDINE]

# Assay: as §1, with “WLS-052” for “WLS-010”, “ERS12561747” for “ERS12561743”
# Conditions: 2 µM
row,Bacterial Biotransformation,Compound
1,Compound metabolized,CCN(CC)C(C)CN1c2ccccc2Sc2ccccc21 (stereo not given) [ETHOPROPAZINE]
2,Compound metabolized,CCN(CC)CC#CCOC(=O)C(O)(c1ccccc1)C1CCCCC1.Cl (stereo not given) [OXYBUTYNIN CHLORIDE]
3,Compound NOT metabolized,Nc1c2c(nc3ccccc13)CCCC2 [TACRINE]
4,Compound NOT metabolized,CC(Oc1c(Cl)cccc1Cl)C1=NCCN1 (stereo not given) [LOFEXIDINE]

# Conditions: human gut metagenome, 24 h, 2 µM
# Remark: another data set of the same source
row,Bacterial Biotransformation,Compound
1,Compound NOT metabolized,CCN(CC)C(C)CN1c2ccccc2Sc2ccccc21 (stereo not given) [ETHOPROPAZINE]
2,Compound NOT metabolized,CCN(CC)CC#CCOC(=O)C(O)(c1ccccc1)C1CCCCC1.Cl (stereo not given) [OXYBUTYNIN CHLORIDE]
3,Compound NOT metabolized,Nc1c2c(nc3ccccc13)CCCC2 [TACRINE]
4,Compound NOT metabolized,CC(Oc1c(Cl)cccc1Cl)C1=NCCN1 (stereo not given) [LOFEXIDINE]

# Conditions: human gut metagenome, 24 h, 2 µM
# Remark: another data set of the same source
row,Bacterial Biotransformation,Compound
1,Compound metabolized,CCN(CC)C(C)CN1c2ccccc2Sc2ccccc21 (stereo not given) [ETHOPROPAZINE]
2,Compound metabolized,CCN(CC)CC#CCOC(=O)C(O)(c1ccccc1)C1CCCCC1.Cl (stereo not given) [OXYBUTYNIN CHLORIDE]
3,Compound NOT metabolized,Nc1c2c(nc3ccccc13)CCCC2 [TACRINE]
4,Compound NOT metabolized,CC(Oc1c(Cl)cccc1Cl)C1=NCCN1 (stereo not given) [LOFEXIDINE]

# Assay: as §1, with “WLS-039” for “WLS-010”, “ERS12561746” for “ERS12561743”
# Conditions: 2 µM
row,Bacterial Biotransformation,Compound
1,Compound metabolized,CCN(CC)C(C)CN1c2ccccc2Sc2ccccc21 (stereo not given) [ETHOPROPAZINE]
2,Compound metabolized,CCN(CC)CC#CCOC(=O)C(O)(c1ccccc1)C1CCCCC1.Cl (stereo not given) [OXYBUTYNIN CHLORIDE]
3,Compound NOT metabolized,Nc1c2c(nc3ccccc13)CCCC2 [TACRINE]
4,Compound NOT metabolized,CC(Oc1c(Cl)cccc1Cl)C1=NCCN1 (stereo not given) [LOFEXIDINE]

# Assay: as §1, with “Z-021” for “WLS-010”, “to” for “to human gut”, “ERS12561820” for “ERS12561743”
# Conditions: 2 µM
row,Bacterial Biotransformation,Compound
1,Compound metabolized,CCN(CC)C(C)CN1c2ccccc2Sc2ccccc21 (stereo not given) [ETHOPROPAZINE]
2,Compound metabolized,CCN(CC)CC#CCOC(=O)C(O)(c1ccccc1)C1CCCCC1.Cl (stereo not given) [OXYBUTYNIN CHLORIDE]
3,Compound NOT metabolized,Nc1c2c(nc3ccccc13)CCCC2 [TACRINE]
4,Compound NOT metabolized,CC(Oc1c(Cl)cccc1Cl)C1=NCCN1 (stereo not given) [LOFEXIDINE]

# Conditions: human gut metagenome, 24 h, 2 µM
# Remark: another data set of the same source
row,Bacterial Biotransformation,Compound
1,Compound metabolized,CCN(CC)C(C)CN1c2ccccc2Sc2ccccc21 (stereo not given) [ETHOPROPAZINE]
2,Compound metabolized,CCN(CC)CC#CCOC(=O)C(O)(c1ccccc1)C1CCCCC1.Cl (stereo not given) [OXYBUTYNIN CHLORIDE]
3,Compound metabolized,Nc1c2c(nc3ccccc13)CCCC2 [TACRINE]
4,Compound metabolized,CC(Oc1c(Cl)cccc1Cl)C1=NCCN1 (stereo not given) [LOFEXIDINE]

# Assay: as §1, with “Z-011” for “WLS-010”, “mouse” for “human”, “ERS12561811” for “ERS12561743”
# Conditions: 2 µM
row,Bacterial Biotransformation,Compound
1,Compound NOT metabolized,CCN(CC)C(C)CN1c2ccccc2Sc2ccccc21 (stereo not given) [ETHOPROPAZINE]
2,Compound NOT metabolized,CCN(CC)CC#CCOC(=O)C(O)(c1ccccc1)C1CCCCC1.Cl (stereo not given) [OXYBUTYNIN CHLORIDE]
3,Compound NOT metabolized,Nc1c2c(nc3ccccc13)CCCC2 [TACRINE]
4,Compound NOT metabolized,CC(Oc1c(Cl)cccc1Cl)C1=NCCN1 (stereo not given) [LOFEXIDINE]
